Values of other authors in US11491229B2, “Medication system” (priority 2015, dated 2022).

Experiments:
[1] = system: estrogen receptor-positive and estrogen receptor-negative breast cancer cell lines; conditions: inducing apoptosis in a concentration-dependent manner
[2] = system: nontumorigenic mammary cells
breast tumors = conditions: mice models
prostate cell line, PC-3 = conditions: Ruiz et al. 1999
[3] = molecular target: T1, androgen receptor in the prostate gland (Homo sapiens, UniProt P10275)
T1 sequence (P10275 1-920): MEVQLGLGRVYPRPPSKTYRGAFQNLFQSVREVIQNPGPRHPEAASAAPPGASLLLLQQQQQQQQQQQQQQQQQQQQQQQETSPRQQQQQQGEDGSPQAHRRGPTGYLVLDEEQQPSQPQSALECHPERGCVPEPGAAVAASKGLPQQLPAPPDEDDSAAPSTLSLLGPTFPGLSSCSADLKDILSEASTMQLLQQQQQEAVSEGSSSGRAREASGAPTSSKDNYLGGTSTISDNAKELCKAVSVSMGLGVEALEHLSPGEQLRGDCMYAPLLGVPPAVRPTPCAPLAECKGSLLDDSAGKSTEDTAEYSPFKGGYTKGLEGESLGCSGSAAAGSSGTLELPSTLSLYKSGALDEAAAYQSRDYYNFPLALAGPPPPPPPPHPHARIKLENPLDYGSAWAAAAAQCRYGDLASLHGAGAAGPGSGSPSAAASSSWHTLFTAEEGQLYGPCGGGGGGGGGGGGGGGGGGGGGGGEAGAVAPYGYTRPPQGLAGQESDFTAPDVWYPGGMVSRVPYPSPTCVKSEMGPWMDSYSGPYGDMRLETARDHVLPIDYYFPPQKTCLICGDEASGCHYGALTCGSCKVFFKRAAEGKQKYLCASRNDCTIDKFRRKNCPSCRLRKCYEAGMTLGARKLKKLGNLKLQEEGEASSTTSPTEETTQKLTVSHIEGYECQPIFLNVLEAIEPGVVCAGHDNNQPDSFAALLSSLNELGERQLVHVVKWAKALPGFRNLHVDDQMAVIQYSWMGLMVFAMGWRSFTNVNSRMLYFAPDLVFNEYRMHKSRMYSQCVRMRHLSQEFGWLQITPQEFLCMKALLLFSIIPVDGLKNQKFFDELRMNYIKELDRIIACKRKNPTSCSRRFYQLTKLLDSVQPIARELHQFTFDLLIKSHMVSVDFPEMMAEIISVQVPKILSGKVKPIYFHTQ

CB1 receptor = CB1 receptor (Homo sapiens, UniProt P21554)
Sequence of CB1 receptor (P21554 whole entry): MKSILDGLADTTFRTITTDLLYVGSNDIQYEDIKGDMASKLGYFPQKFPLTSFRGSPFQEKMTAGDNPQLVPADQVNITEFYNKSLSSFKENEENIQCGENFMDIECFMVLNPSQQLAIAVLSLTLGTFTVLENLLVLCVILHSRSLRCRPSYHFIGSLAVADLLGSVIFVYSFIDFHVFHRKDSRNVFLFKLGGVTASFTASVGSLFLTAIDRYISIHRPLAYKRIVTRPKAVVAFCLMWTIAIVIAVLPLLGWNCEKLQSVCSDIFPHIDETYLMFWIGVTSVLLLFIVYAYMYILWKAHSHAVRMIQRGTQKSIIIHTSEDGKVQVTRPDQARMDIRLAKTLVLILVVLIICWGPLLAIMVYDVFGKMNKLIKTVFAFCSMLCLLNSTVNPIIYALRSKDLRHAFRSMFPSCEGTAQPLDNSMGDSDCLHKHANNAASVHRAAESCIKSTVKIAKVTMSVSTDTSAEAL

[4] = not given; remark: listed apart in the source

C=C(C)[C@@H]1CCC(C)=C[C@H]1c1c(O)cc(CCCCC)cc1O [CBD, Cannabidiol]
survival of breast cancer cell lines [1]: inhibited the survival
effect on nontumorigenic mammary cells [2]: little effect
effect on breast tumors (breast tumors): shrink breast tumors, and obstruct growth and metastasis
affinity to cannabinoid receptors (cannabinoid receptors): low affinity

CCCCCc1cc(O)c2c(c1)OC(C)(C)[C@@H]1CCC(C)=C[C@@H]21 [THC, Tetrahydrocannabinol]
time after administration at which pain reduction effects were felt (average) (cold-pressor test): 180 min
pain sensitivity (cold-pressor test after administration, smoked marijuana or oral dronabinol capsules 10 mg or 20 mg): decreased pain sensitivity
duration of effects (dronabinol compared with smoked marijuana): lasted longer than smoked marijuana
apoptosis (prostate cell line, PC-3): causes apoptosis
specific binding of dihydroxytestosterone to the androgen receptor [3]: inhibits specific binding

CCCc1cc(O)c2c(c1)OC(C)(C)[C@@H]1CCC(C)=C[C@@H]21 [THCV, Tetrahydrocannabivarin]
CB1 receptor mode of action (CB1 receptor): antagonist

vitamin E
reduction in breast cancer incidence ([4]; pre-menopausal women with a family history of breast cancer, highest quantity of vitamin E consumed): 43%
risk reduction of breast cancer ([4]; women without a family history of breast cancer): 16%
